Measured values reported in publication PMC12257397, “Scaffold Hopping Strategy toward New 4‑Aminoquinazolines Active Against Extracellular and Intracellular Mycobacterium tuberculosis” (ACS Medicinal Chemistry Letters, 2025).
Converted amounts (≈) assume the structure as drawn. Where two headings read alike, the source gives them in different places.

Tests used:
[1] = system: M. tuberculosis H37Rv (ATCC 27294); assay: MIC by resazurin reduction microplate assay (REMA); type: cell-based; conditions: Mycobacterium tuberculosis, converted from μg/mL to μM
in vitro [2] = conditions: human
[3] = system: M. tuberculosis H37Rv-LP (ATCC 25618); assay: microbe, parasite or virus in culture; type: cell-based; conditions: concentration inhibiting 90% of growth, 5 days, read-out: MIC parental wild-type strain H37Rv-LP
in vitro [4] = conditions: human; remark: listed apart in the source
in vitro [5] = conditions: human; remark: listed apart in the source
[6] = system: Mycobacterium smegmatis mc2155; type: cell-based
[7] = system: Mycobacterium avium 2285S (smooth); assay: Antimicrobial spectrum MIC, M. avium smooth; type: cell-based
[8] = system: Mycobacterium abscessus 103R; assay: Antimicrobial spectrum MIC, M. abscessus; type: cell-based
[9] = system: Mycobacterium avium 2285R (rough); assay: Antimicrobial spectrum MIC, M. avium rough; type: cell-based
[10] = system: Staphylococcus aureus (ATCC 29213); assay: Antimicrobial spectrum MIC, S. aureus; type: cell-based
Escherichia coli RFM 795 = assay: Antimicrobial spectrum MIC, E. coli; type: cell-based; conditions: Escherichia coli RFM 795 (lptD mutation)
[11] = Mycobacterium tuberculosis, 120 h

SMILES: Cc1nc(NCCc2ccccc2)c2ccccc2n1 [9a]
- MIC [1]: 38 µM (≈ 10 µg/mL)

SMILES: COc1ccc2nc(C)nc(NCCc3ccccc3)c2c1 [9b]
- MIC [1]: 34.1 µM (≈ 10 µg/mL)

SMILES: Cc1nc(NCCc2ccccc2)c2cc(Br)ccc2n1 [9c]
- MIC [1]: 7.3 µM (≈ 2.5 µg/mL)

SMILES: c1ccc(CCNc2ncnc3ccccc23)cc1 [9e]
- MIC [1]: 80.2 µM (≈ 20 µg/mL)

SMILES: COc1ccc(CCNc2nc(C)nc3ccccc23)cc1 [10a]
- MIC [1]: 34.1 µM (≈ 10 µg/mL)

SMILES: COc1ccc(CCNc2nc(C)nc3ccc(OC)cc23)cc1 [10b]
- MIC [1]: 30.9 µM (≈ 9.99 µg/mL)

SMILES: COc1ccc(CCNc2nc(C)nc3ccc(Br)cc23)cc1 [10c]
- MIC [1]: 13.4 µM (≈ 4.99 µg/mL)

SMILES: COc1ccc(CCNc2nc(C)nc3ccc(I)cc23)cc1 [10d]
- MIC [1]: 1.5 µM (≈ 0.629 µg/mL)
- CC50 at 72 h (in vitro [2]; CC50 HepG2+Gal): 6.4 µM
- CC50 at 72 h (in vitro [2]; CC50 HepG2+Glu): 10.8 µM
- MIC [3, 11]: 0.92 µM (≈ 0.386 µg/mL)

SMILES: COc1ccc(CCNc2ncnc3ccccc23)cc1 [10e]
- MIC [1]: 71.6 µM (≈ 20 µg/mL)

SMILES: Cc1nc(NCCc2ccc(Cl)cc2)c2ccccc2n1 [11a]
- MIC [1]: 16.8 µM (≈ 5 µg/mL)

SMILES: COc1ccc2nc(C)nc(NCCc3ccc(Cl)cc3)c2c1 [11b]
- MIC [1]: 30.5 µM (≈ 10 µg/mL)

SMILES: Cc1nc(NCCc2ccc(Cl)cc2)c2cc(Br)ccc2n1 [11c]
- MIC [1]: 13.3 µM (≈ 5.01 µg/mL)

SMILES: Cc1nc(NCCc2ccc(Cl)cc2)c2cc(I)ccc2n1 [11d]
- MIC [1]: 0.73 µM (≈ 0.309 µg/mL)
- CC50 at 72 h (in vitro [2]; CC50 HepG2+Gal): 3.3 µM
- CC50 at 72 h (in vitro [2]; CC50 HepG2+Glu): 4.2 µM
- MIC [3, 11]: 0.84 µM (≈ 0.356 µg/mL)

SMILES: Clc1ccc(CCNc2ncnc3ccccc23)cc1 [11e]
- MIC [1]: > 35.2 µM

SMILES: Cc1nc(NCC(c2ccccc2)c2ccccc2)c2ccccc2n1 [12a]
- MIC [1]: 29.5 µM (≈ 10 µg/mL)

SMILES: COc1ccc2nc(C)nc(NCC(c3ccccc3)c3ccccc3)c2c1 [12b]
- MIC [1]: 27.1 µM (≈ 10 µg/mL)

SMILES: Cc1nc(NCC(c2ccccc2)c2ccccc2)c2cc(Br)ccc2n1 [12c]
- MIC [1]: > 23.9 µM

SMILES: Cc1nc(NCC(c2ccccc2)c2ccccc2)c2cc(I)ccc2n1 [12d]
- MIC [1]: > 21.5 µM

SMILES: c1ccc(C(CNc2ncnc3ccccc23)c2ccccc2)cc1 [12e]
- MIC [1]: > 30.7 µM

SMILES: Cc1nc(NCCc2ccc(OC(F)(F)F)cc2)c2ccccc2n1 [13a]
- MIC [1]: 7.2 µM (≈ 2.5 µg/mL)

SMILES: COc1ccc2nc(C)nc(NCCc3ccc(OC(F)(F)F)cc3)c2c1 [13b]
- MIC [1]: 13.3 µM (≈ 5.02 µg/mL)

SMILES: Cc1nc(NCCc2ccc(OC(F)(F)F)cc2)c2cc(Br)ccc2n1 [13c]
- MIC [1]: 5.9 µM (≈ 2.51 µg/mL)
- CC50 at 72 h (in vitro [4]): < 1 µM
- CC50 at 72 h (in vitro [2]; CC50 HepG2+Gal): 1 µM
- CC50 at 72 h (in vitro [2]; CC50 HepG2+Glu): 1.5 µM
- CC50 at 72 h (in vitro [5]): < 1 µM
- MIC [3, 11]: 3.4 µM (≈ 1.45 µg/mL)

SMILES: Cc1nc(NCCc2ccc(OC(F)(F)F)cc2)c2cc(I)ccc2n1 [13d]
- MIC [1]: 5.3 µM (≈ 2.51 µg/mL)
- CC50 at 72 h (in vitro [4]): 7.4 µM
- CC50 at 72 h (in vitro [2]; CC50 HepG2+Gal): 2.2 µM
- CC50 at 72 h (in vitro [2]; CC50 HepG2+Glu): 3.4 µM
- CC50 at 72 h (in vitro [5]): 7.3 µM
- MIC [3, 11]: 3.7 µM (≈ 1.75 µg/mL)

SMILES: FC(F)(F)Oc1ccc(CCNc2ncnc3ccccc23)cc1 [13e]
- MIC [1]: 60 µM (≈ 20 µg/mL)

SMILES: Cc1nc(NCCc2ccc(S(N)(=O)=O)cc2)c2ccccc2n1 [14a]
- MIC [1]: > 117 µM

SMILES: COc1ccc2nc(C)nc(NCCc3ccc(S(N)(=O)=O)cc3)c2c1 [14b]
- MIC [1]: > 107 µM

SMILES: Cc1nc(NCCc2ccc(S(N)(=O)=O)cc2)c2cc(Br)ccc2n1 [14c]
- MIC [1]: > 94.9 µM

SMILES: Cc1nc(NCCc2ccc(S(N)(=O)=O)cc2)c2cc(I)ccc2n1 [14d]
- MIC [1]: > 85.4 µM

SMILES: NS(=O)(=O)c1ccc(CCNc2ncnc3ccccc23)cc1 [14e]
- MIC [1]: > 122 µM

SMILES: Cc1ccc(CCNc2nc(C)nc3ccccc23)cc1 [15a]
- MIC [1]: 18 µM (≈ 4.99 µg/mL)

SMILES: COc1ccc2nc(C)nc(NCCc3ccc(C)cc3)c2c1 [15b]
- MIC [1]: 16.3 µM (≈ 5.01 µg/mL)

SMILES: Cc1ccc(CCNc2nc(C)nc3ccc(Br)cc23)cc1 [15c]
- MIC [1]: 7 µM (≈ 2.49 µg/mL)

SMILES: Cc1ccc(CCNc2nc(C)nc3ccc(I)cc23)cc1 [15d]
- MIC [1]: 3.1 µM (≈ 1.25 µg/mL)
- CC50 at 72 h (in vitro [4]): 10.2 µM
- CC50 at 72 h (in vitro [2]; CC50 HepG2+Gal): 6.6 µM
- CC50 at 72 h (in vitro [2]; CC50 HepG2+Glu): 11.4 µM
- CC50 at 72 h (in vitro [5]): 10.6 µM
- MIC [3, 11]: 0.48 µM (≈ 0.194 µg/mL)

SMILES: Cc1ccc(CCNc2ncnc3ccccc23)cc1 [15e]
- MIC [1]: > 38 µM

SMILES: CCc1ccc(CCNc2nc(C)nc3ccccc23)cc1 [16a]
- MIC [1]: 17.2 µM (≈ 5.01 µg/mL)

SMILES: CCc1ccc(CCNc2nc(C)nc3ccc(OC)cc23)cc1 [16b]
- MIC [1]: 15.6 µM (≈ 5.01 µg/mL)

SMILES: CCc1ccc(CCNc2nc(C)nc3ccc(Br)cc23)cc1 [16c]
- MIC [1]: 6.8 µM (≈ 2.52 µg/mL)
- CC50 at 72 h (in vitro [2]; CC50 HepG2+Gal): 1.6 µM
- CC50 at 72 h (in vitro [2]; CC50 HepG2+Glu): 4 µM
- MIC [3, 11]: 2 µM (≈ 0.741 µg/mL)
- MIC [3]: 2.0 µM (≈ 0.741 µg/mL)

SMILES: CCc1ccc(CCNc2nc(C)nc3ccc(I)cc23)cc1 [16d]
- MIC [1]: 6 µM (≈ 2.5 µg/mL)
- CC50 at 72 h (in vitro [4]): 8.3 µM
- CC50 at 72 h (in vitro [2]; CC50 HepG2+Gal): 5.3 µM
- CC50 at 72 h (in vitro [2]; CC50 HepG2+Glu): 7.4 µM
- CC50 at 72 h (in vitro [5]): 8.3 µM
- MIC [3, 11]: 1.9 µM (≈ 0.793 µg/mL)

SMILES: CCc1ccc(CCNc2ncnc3ccccc23)cc1 [16e]
- MIC [1]: 36 µM (≈ 9.99 µg/mL)

SMILES: Cc1nc(NCCc2ccc3ccccc3c2)c2ccccc2n1 [17a]
- MIC [1]: 8 µM (≈ 2.51 µg/mL)

SMILES: COc1ccc2nc(C)nc(NCCc3ccc4ccccc4c3)c2c1 [17b]
- MIC [1]: 7.3 µM (≈ 2.51 µg/mL)

SMILES: Cc1nc(NCCc2ccc3ccccc3c2)c2cc(Br)ccc2n1 [17c]
- MIC [1]: 3.2 µM (≈ 1.26 µg/mL)
- CC50 at 72 h (in vitro [4]): < 1 µM
- CC50 at 72 h (in vitro [2]; CC50 HepG2+Gal): 1.8 µM
- CC50 at 72 h (in vitro [2]; CC50 HepG2+Glu): 4.6 µM
- CC50 at 72 h (in vitro [5]): < 1 µM
- MIC [3, 11]: 2.5 µM (≈ 0.981 µg/mL)

SMILES: Cc1nc(NCCc2ccc3ccccc3c2)c2cc(I)ccc2n1 [17d]
- MIC [1]: 1.4 µM (≈ 0.615 µg/mL)
- CC50 at 72 h (in vitro [2]; CC50 HepG2+Gal): 5.2 µM
- CC50 at 72 h (in vitro [2]; CC50 HepG2+Glu): 7.1 µM
- MIC [3, 11]: 1.4 µM (≈ 0.615 µg/mL)

SMILES: c1ccc2cc(CCNc3ncnc4ccccc34)ccc2c1 [17e]
- MIC [1]: > 16.7 µM

SMILES: Cc1nc(NCCCc2ccccc2)c2ccccc2n1 [18a]
- MIC [1]: 4.5 µM (≈ 1.25 µg/mL)
- CC50 at 72 h (in vitro [2]; CC50 HepG2+Gal): 2.6 µM
- CC50 at 72 h (in vitro [2]; CC50 HepG2+Glu): 7.7 µM
- MIC [3, 11]: 1.6 µM (≈ 0.444 µg/mL)
- MIC [3]: 1.6 µM (≈ 0.444 µg/mL)

SMILES: c1ccc(CCCNc2ncnc3ccccc23)cc1 [18e]
- MIC [1]: 19 µM (≈ 5 µg/mL)
- CC50 at 72 h (in vitro [4]): < 1 µM
- CC50 at 72 h (in vitro [2]; CC50 HepG2+Gal): 2.5 µM
- CC50 at 72 h (in vitro [2]; CC50 HepG2+Glu): 10.9 µM
- CC50 at 72 h (in vitro [5]): < 1 µM
- MIC [3, 11]: 24 µM (≈ 6.32 µg/mL)

SMILES: NNC(=O)c1ccncc1 [19 (INH), isoniazid, reference compound]
- MIC [1]: 2.3 µM (≈ 0.315 µg/mL)

SMILES: CO[C@H]1/C=C/O[C@@]2(C)Oc3c(C)c(O)c4c(O)c(c(/C=N/N5CCN(C)CC5)c(O)c4c3C2=O)NC(=O)/C(C)=C\C=C\[C@H](C)[C@H](O)[C@@H](C)[C@@H](O)[C@@H](C)[C@H](OC(C)=O)[C@@H]1C [20 (RIF), rifampicin, reference compound]
- CIM mc2155 [6]: 48.6 µM
- MIC [3, 11]: 0.03 µM (≈ 0.0247 µg/mL)

SMILES: CN[C@@H]1C[C@H]2O[C@@](C)([C@@H]1OC)n1c3ccccc3c3c4c(c5c6ccccc6n2c5c31)C(=O)NC4 [21 (STA), staurosporine, reference compound]
- CC50 (in vitro [2]; CC50 HepG2+Gal): 0.04 µM
- CC50 (in vitro [2]; CC50 HepG2+Glu): 0.03 µM

SMILES: CC[C@H]1OC(=O)[C@H](C)[C@@H](O[C@H]2C[C@@](C)(OC)[C@@H](O)[C@H](C)O2)[C@H](C)[C@@H](O[C@@H]2O[C@H](C)C[C@H](N(C)C)[C@H]2O)[C@](C)(OC)C[C@@H](C)C(=O)[C@H](C)[C@@H](O)[C@]1(C)O [25 (CLA), Clarithromycin, reference compound]
- CIM 2285S [7]: 0.4 µM
- CIM 103R [8]: 0.5 µM
- CIM 2285R [9]: 1.4 µM

SMILES: CN[C@H](CC(C)C)C(=O)N[C@H]1C(=O)N[C@@H](CC(N)=O)C(=O)N[C@H]2C(=O)N[C@H]3C(=O)N[C@H](C(=O)N[C@H](C(=O)O)c4cc(O)cc(O)c4-c4cc3ccc4O)[C@H](O)c3ccc(c(Cl)c3)Oc3cc2cc(c3O[C@@H]2O[C@H](CO)[C@@H](O)[C@H](O)[C@H]2O[C@H]2C[C@](C)(N)[C@H](O)[C@H](C)O2)Oc2ccc(cc2Cl)[C@H]1O [26 (VAN), Vancomycin, reference compound]
- CIM 29213 [10]: 2.9 µM

SMILES: CC1(C)S[C@@H]2[C@H](NC(=O)[C@H](N)c3ccccc3)C(=O)N2[C@H]1C(=O)O [27 (AMP), Ampicillin, reference compound]
- CIM RFM 795 (Escherichia coli RFM 795): 12.0 µM
